In general, MIC refers to the lowest concentration found to suppress growth.

Converted amounts (≈) assume the structure as drawn. A value given as a limit tells only on which side of the number the result lay.

Here are results for 2 compounds from US4745202A, “Aerocyanidin-antibiotic” (E. R. Squibb & Sons, Inc., priority 1987, dated 1988).

One series deals with Escherichia coli. As to the kind of experiment: MIC by agar dilution technique. It is filed as cell-based. Particulars: 37° C., 18 hours. The method, then: (§1) The minimum inhibitory concentration (MIC) of aerocavin was determined by an agar dilution technique. The test organisms were prepared from frozen stocks and diluted to give a final level of 10^7 CFU/ml (CFU is colony forming units). Aerocavin was dissolved in the appropriate diluent at a concentration of 1,000 μg/ml. Two fold dilutions were made in Yeast Beef Broth (Difco), resulting in a range from 1,000 μg/ml to 0.5 μg/ml. A 1.5 ml sample of each dilution was placed into individual petri dishes to which 13.5 ml of K-10 agar* was added. The final drug concentration in the agar ranged from 100 μg/ml to 0.05 μg/ml. Organism growth control plates containing agar only were prepared and inoculated before and after the test plates. The organisms were applied to the surface of each plate with the Denley Multipoint Inoculator (which delivers approximately 0.001 ml of each organism) resulting in a final inoculum level of 10^4 CFU on the agar surface.
(§2) The plates were incubated at 37° C. for 18 hours and the MIC's then determined. The MIC is the lowest concentration of compound inhibiting growth of the organism.
(§3) Using the methodology described for the determination of the biological activity of aerocavin, the biological activity of aerocyanidin was determined.
Background: In agar dilution the substance is mixed into plates at graded concentrations.

The subject of another series is Pseudomonas aeruginosa. As to the kind of experiment: MIC by agar dilution technique. It is filed as cell-based. Particulars: 37° C., 18 hours. Here is the method: as §1, §2, §3
Another series relates to Staphylococcus aureus. As to the kind of experiment: MIC by agar dilution technique. It is filed as cell-based. Particulars: 37° C., 18 hours. Here is the method: as §1, §2, §3
In series [1] the test system is Acinetobacter calcoaceticus. Briefly: MIC by agar dilution technique. It is filed as cell-based. Particulars: SC8333, SC No. 8333, 10^4 CFU, 37° C., 18 hours. The method, then: as §1, with “surface. |*K-10 agar The plates were incubated at 37° C. for 18 hours and the MIC's then determined. The MIC is the lowest concentration of compound inhibiting growth of the organism.” for “surface.”

In series [2] the test system is Staphylococcus epidermidis. As to the kind of experiment: MIC by agar dilution technique. It is filed as cell-based. Particulars: 37° C., 18 hours. The method, then:
as §1, with “surface. |*K-10 agar The plates were incubated at 37° C. for 18 hours and the MIC's then determined. The MIC is the lowest concentration of compound inhibiting growth of the organism.” for “surface.”

In a further series the test system is gram positive organisms. Briefly: activity against gram positive organisms. It is filed as cell-based.
A short description of the next series: solubility. It is filed as physicochemical.
The subject of a further series is Enterobacter cloacae. Briefly: MIC by agar dilution technique. It is filed as cell-based. Particulars: SC8236, SC No. 8236, 10^4 CFU, 37° C., 18 hours. The method, then: as §1, §2, §3
Another series deals with Klebsiella aerogenes. As to the kind of experiment: MIC by agar dilution technique. It is filed as cell-based. Particulars: SC10440, SC No. 10440, 10^4 CFU, 37° C., 18 hours. The method, then:
as §1, §2, §3

A further series concerns Klebsiella pneumoniae. Briefly: MIC by agar dilution technique. It is filed as cell-based. Particulars: SC9527, SC No. 9527, 10^4 CFU, 37° C., 18 hours. The method, then:
as §1, §2, §3

In the next series the test system is Micrococcus luteus. As to the kind of experiment: MIC by agar dilution technique. It is filed as cell-based. Particulars: SC2495, SC No. 2495, 10^4 CFU, 37° C., 18 hours. The method, then:
as §1, §2, §3

The subject of a further series is Proteus mirabilis. As to the kind of experiment: MIC by agar dilution technique. It is filed as cell-based. Particulars: SC3855, SC No. 3855, 10^4 CFU, 37° C., 18 hours. Here is the method:
as §1, §2, §3

The test system of another series is Salmonella typhosa. As to the kind of experiment: MIC by agar dilution technique. It is filed as cell-based. Particulars: Salmonella enterica, SC1195 / TYPHOSA, 18 h. Here is the method: as §1, §2, §3
The subject of the next series is Shigella sonnei. As to the kind of experiment: MIC by agar dilution technique. It is filed as cell-based. Particulars: SC8449, SC No. 8449, 10^4 CFU, 37° C., 18 hours. The method, then:
as §1, §2, §3

The test system of a further series is Streptococcus agalactiae. As to the kind of experiment: MIC by agar dilution technique. It is filed as cell-based. Particulars: SC9287, SC No. 9287, 10^4 CFU, 37° C., 18 hours. Here is the method:
as §1, §2, §3

The test system of the next series is Streptococcus faecalis. As to the kind of experiment: MIC by agar dilution technique. It is filed as cell-based. Particulars: Enterococcus faecalis, SC9011; SC No. 9011; 10^4 CFU, 37° C., 18 hours. The method, then: as §1, §2, §3
The nature of the next series: stability on storage. It is filed as physicochemical. Particulars: solid state, compared with ethyl acetate solution at 4° C.

Take `CCCCCCCCC[C@@H](O)C[C@H]1C[C@H](O)C/C(C)=C/C/C=C/C/C(CC(=O)O)=C\C(=O)O1` (relative stereo) [aerocavin, [3E,6E,9E,12α,14β(R*)]-12-hydroxy-14-(2-hydroxyundecyl)-10-methyl-2-oxooxacyclotetradeca-3,6,9-triene-4-acetic acid]: the MIC is 100 µg/mL (≈ 215 µM) with Escherichia coli (SC8294, SC No. 8294, 10^4 CFU); 12.5 µg/mL (≈ 26.9 µM) in the series with Escherichia coli (SC10857, SC No. 10857, 10^4 CFU); 25 µg/mL (≈ 53.8 µM) with Pseudomonas aeruginosa (SC9545, SC No. 9545, 10^4 CFU); 6.3 µg/mL (≈ 13.6 µM) against Staphylococcus aureus (SC1276, SC No. 1276, 10^4 CFU); 6.3 µg/mL (≈ 13.6 µM) against Staphylococcus aureus (SC2399, SC No. 2399, 10^4 CFU); 6.3 µg/mL (≈ 13.6 µM) with Staphylococcus aureus (SC9593, SC No. 9593 (Penicillin^R), 10^4 CFU). Besides, the MIC with Staphylococcus aureus (SC10016, SC No. 10016 (Tetracycline^R), 10^4 CFU) is 3.1 µg/mL (≈ 6.67 µM); in the series with Staphylococcus aureus (SC10820, SC No. 10820 (Erythromycin^R), 10^4 CFU) it was 3.1 µg/mL (≈ 6.67 µM); in [1], 12.5 µg/mL (≈ 26.9 µM); in series [2] (SC9052, SC No. 9052, 10^4 CFU) it was 6.3 µg/mL (≈ 13.6 µM); in [2] (SC10547, SC No. 10547 (Penicillin^R), 10^4 CFU), 3.1 µg/mL (≈ 6.67 µM). The “activity against gram positive organisms” value in the series with gram positive organisms is listed as “has activity against gram positive organisms”. For the same compound, the solubility result in “solubility” (in heptane) was “less soluble”; in the series “solubility” (in methanol, acetone, ethyl acetate), “substantially soluble”; in “solubility” (in water), “insoluble”.
With `[C-]#[N+][C@]1(C)O[C@@H]1[C@H](O)CCCCCCCCCC(=O)O` (relative stereo) [aerocyanidin, [2α(R*),3α]-κ-hydroxy-3-isocyano-3-methyloxiraneundecanoic acid], the MIC against Enterobacter cloacae is 50 µg/mL (≈ 176 µM); against Escherichia coli (SC8294, SC No. 8294, 10^4 CFU) it was more than 50 µg/mL; against Escherichia coli (SC10896, SC No. 10896, 10^4 CFU) it was 25 µg/mL (≈ 88.2 µM); in the series with Escherichia coli (SC10909, SC No. 10909, 10^4 CFU), 1.6 µg/mL (≈ 5.65 µM); with Klebsiella aerogenes, more than 50 µg/mL; against Klebsiella pneumoniae, more than 50 µg/mL. The minimum inhibitory concentration (MIC) with Micrococcus luteus is 0.4 µg/mL (≈ 1.41 µM); in the series with Proteus mirabilis, 1.6 µg/mL (≈ 5.65 µM); against Pseudomonas aeruginosa (SC8329, SC No. 8329, 10^4 CFU), more than 50 µg/mL; against Salmonella typhosa it was 25 µg/mL (≈ 88.2 µM); in the series with Shigella sonnei, 25 µg/mL (≈ 88.2 µM); in the series with Staphylococcus aureus (SC1276, SC No. 1276, 10^4 CFU), less than 0.05 µg/mL. Besides, the MIC against Staphylococcus aureus (SC2399, SC No. 2399, 10^4 CFU) is less than 0.05 µg/mL; against Staphylococcus aureus (SC2400, SC No. 2400, 10^4 CFU), less than 0.05 µg/mL; against Streptococcus agalactiae, less than 0.05 µg/mL; against Streptococcus faecalis, 0.2 µg/mL (≈ 0.706 µM). In the series with gram positive organisms, the “activity against gram positive organisms” value was “has activity against gram positive organisms”. Further, the stability result in the series “stability on storage” is reported as “less stable in the solid state”.
